Test results from patent publication US20250346588A1, “IMIDAZOPYRIDINE AND OXAZOLOPYRIDINE DERIVATIVES AND ANALOGS THEREOF, METHODS OF PREPARATION THEREOF, METHODS OF HIF-1/2A PATHWAY INHIBITION, AND INDUCTION OF FERROPTOSIS” (KUDA THERAPEUTICS, INC., priority 2022, published 2025).

Key:
[1] = test system: RCC4 or 786-0 cells±pVHL re-expression; assay: Cell viability with pVHL re-expression; type: cell-based, human; details: 48h
786-0 cells [2] = assay: TBARS assay of lipid peroxidation (MDA); type: cell-based, human; details: 48h treatment
Procedure: Malondialdehyde (MDA) is an end product of lipid peroxidation products and can be used to indicate lipid peroxidation, which is a hallmark of ferroptosis. MDA adducts were quantitated in cells and tumor tissue using the TBARS-TCA Method kit (Cat 700870, Cayman Chemicals, Ann Arbour Michigan) according to the manufacturer's protocol. Briefly, 786-0 cells were seeded at 1.75×10E6 cells in T75 cm^2 flasks, allowed to adhere overnight in a humidified incubator at 37° C. with 5% CO2, then treated with test compounds for 48 h, RSL3 (as positive control for 6h) or DMSO control (volume of DMSO kept constant for all flasks). Cells were detached by trypsinization, pelleted by centrifugation, washed in PBS twice, resuspended in 200 μL PBS, then sonicated for 3 minutes in a sonicating water bath. Representative data showing effects of 26HCL or 62TFA in comparison to RSL3, a classical ferroptosis inducer, is shown in FIG. 5. For MDA quantitation in tumor chunks, 20-50 mg of tumor tissue was homogenized in 200-500 μL of PBS, then sonicated for 5 minutes in a sonicating water bath. The cell or tumor lysates were subjected to the colorimetric detection methods described in manufacturer's protocol. MDA concentration of cells was determined in comparison to a standard curve of MDA stock solution provided by the manufacturer. Data was plotted using Prism GraphPad 9.3.1 Software. […]

ISCA2 = target: T1, ISCA2 (Homo sapiens, UniProt Q86U28); assay: Thermal shift assay with recombinant ISCA2 (SYPRO Orange); type: binding
T1 construct: His6 (N); made in house; host or cells: E. coli Rosetta (DE3)
T1 sequence (Q86U28 9-154): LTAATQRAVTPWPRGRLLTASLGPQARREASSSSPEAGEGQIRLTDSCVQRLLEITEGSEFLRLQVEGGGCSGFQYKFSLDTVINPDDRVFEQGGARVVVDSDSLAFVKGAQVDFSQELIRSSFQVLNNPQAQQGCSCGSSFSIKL
Procedure: Thermal shift assays were performed by monitoring the change in protein melting temperature (Tm) in the absence or presence of test compounds, using the hydrophobic protein binding dye, SYPRO Orange (S6650, Thermo Fisher Scientific), measured using the LightCycler 480 (Roche Life Sciences, Indianapolis, IN) according to the manufacturer's protocol. Recombinant ISCA2 was produced by expressing amino acid residues 9-154 of ISCA2 (ISCA2 lacking its mitochondrial localization sequence) in the pET28 vector containing an N-terminal His6 tag in Rosetta (DE3) competent cells (Novagen, Millipore Sigma). ISCA2 production was induced by treating ISCA2 transformed log phase cells with 0.25 mM IPTG for 4 hours at 18° C. ISCA2 was purified using Ni^2+ affinity purification according to standard protocols and eluted in 50 mM Tris-C1 pH7.4, 150 mM NaCl, 5 mM DTT. Thermal shift assays were performed in 384-well plates using 1 μl of a 10× concentration of SYPRO Orange, 8 μl of ISCA2 (4 μg protein) and 1 μl of 1-2 mM stock of test compound per well. The LightCycler was used according to the following setup: LightCycler 480 Instrument Temperature Setup: First target of 20° C., with a Hold of 15 seconds; second target of 95° C., with Acquisition Mode of Continuous, and 10 acquisitions per degree c.; and third target of 20° C., with a Hold of 15 seconds. Tms were determined using Roche Protein Melting Analysis Software. Representative data are shown in FIGS. 6 and 7 using compound 1 and 26HCL at 200 and 100 µM final concentration respectively. […] These findings are supported by studies showing that re-expression of VHL (which increases ISCA2) and overexpression of ISCA2 itself, promotes the resistance of cells to the compounds (shown in FIG. 8).

[3] = test system: HIF target genes VEGFA and POU5F1; assay: qPCR of HIF target genes; type: cell-based, human; details: FIG. 2C
Procedure: For qPCR, cells seeded as described above were harvested for RNA isolation using the RNA Clean and Concentrator kit (Zymo Research, Irvine CA) according to the manufacturer's protocol. cDNA was prepared using the High Capacity […] kit from Thermo Fisher Scientific (Waltham, […]). qRT-PCR was performed using pre-designed Taqman Gene Expression assay primer/probes and master mix (Thermo Fisher Scientific) according to the manufacturer's protocol using the QuantStudio 3 Real-Time PCR System (ThermoFisher). Relative changes in gene expression normalized to the control gene, […] was determined using the ΔΔCt method.

786-0 cells [4] = assay: Resazurin cell viability assay, with or without DFO and other inhibitors; type: cell-based, human
Procedure: Screens for inhibitory activity of compounds described herein were performed using 786-0 ccRCC cells that stably express HRE-Luc: 5 copies of the hypoxia-responsive element (HRE) fused to the pGL3 luciferase reporter (Promega Corp, Madison WI). 786-0 cells are pVHL deficient and thus constitutively express HIF-2α independently of cellular oxygen tension. Since 786-0 cells lack HIF-1α, HRE-driven luciferase activity is primarily HIF-2α driven, and has been previously validated. Cells were maintained at log phase growth in […] (DMEM) with 10% FBS in a humidified incubator at 37° C. with 5% CO2. For screening assays, cells were seeded at a density of 4,000 cells in 50 μl of complete media/well in quadruplicate wells/point in a 96-well plate. After 24 h, 50 μl of a 2× concentration of test compound was added to each well. Compounds were diluted from a 5-10 mM stock in DMSO and final concentrations of DMSO in each well in controls and treated wells were kept constant at ≤0.6% DMSO. After 24 h treatment, luciferase activity was measured using the Steady-Glo Luciferase assay system (Promega Corp) according to the manufacturer's protocol. Cell viability was measured in quadruplicate parallel wells using resazurin as recommended by the manufacturer (R&D systems, Minneapolis, MN). Data for luciferase and resazurin were normalized to DMSO treated controls (defining 100%) and wells containing assay reagent but no cells (defining 0%) and graphed using the log inhibitor versus normalized response option in Graphpad Prism 9.3.1 software. Representative data determined using Steady-Glo luciferase and resazurin are shown in FIGS. 1A and 1B respectively, with error bars showing SD. Filled diamonds, empty squares and empty triangles indicate treatment with 3, 8 and 22 respectively with results for HRE-Luc shown in FIG. 1A.
In view of the increased cellular iron concentrations induced by the compounds described herein, the involvement of iron in mediating cell death was determined. Cell viability assays were performed as described in Example 2 using resazurin as a cell viability readout and performed in the absence or presence of 100 μM of the iron chelator, DFO (D9533, MilliporeSigma, St Louis, MO). […] Viability IC50 values are shown in brackets.

For `COc1ccc(-c2nnc(Nc3nc4c(OC)nccc4[nH]3)o2)cc1OC` [Compound 26HCL, N-(4-Methoxy-1H-imidazo[4,5-c]pyridin-2-yl)-5-(3,4-dimethoxyphenyl)-1,3,4-oxadiazol-2-amine], the “effect of pVHL re-expression on cell viability response to compound” value [1] was “re-expression of pVHL promotes resistance”, the “lipid peroxidation (MDA-TBA adducts)” value (786-0 cells [2]) was “induce lipid peroxidation to an extent comparable to the ferroptosis inducer RSL3” and the “Tm of ISCA2 in compound-treated wells” value (ISCA2; 100 μM compound, control wells 55.02±0.2) was 56.3±0.02 °C. The “change in melting temperature of ISCA2 (in words)” value (ISCA2; compound 1 and 26HCL at 200 and 100 μM final concentration respectively) was “significant change in melting temperature of ISCA2”, the “effect on transcription of HIF target genes (VEGFA, POU5F1)” value [3] was “decrease transcription of HIF target genes” and the “mechanism of cell death” value (786-0 cells [4]; 24h, co-treatment with DFO, NAC, liproxstatin or ZVAD-FMK) was “iron-oxidant dependent and apoptosis/caspase-independent mechanism of cell death”. For the same molecule, the “effect of DFO co-treatment on compound-mediated loss of cell viability” value (786-0 cells [4]; DFO 100 μM, FIG. 4B) was “protective effects of DFO”.
